What was measured:
[1] = molecular target: T1, Recombinant human TYK2 catalytic domain (amino acids 871-1187) (Homo sapiens, UniProt P29597); test: TYK2 ADPglo kinase assay; type: biochemical; also: 12 µM ATP
T1 construct: catalytic domain (amino acids 871-1187)
T1 sequence (P29597 871-1187): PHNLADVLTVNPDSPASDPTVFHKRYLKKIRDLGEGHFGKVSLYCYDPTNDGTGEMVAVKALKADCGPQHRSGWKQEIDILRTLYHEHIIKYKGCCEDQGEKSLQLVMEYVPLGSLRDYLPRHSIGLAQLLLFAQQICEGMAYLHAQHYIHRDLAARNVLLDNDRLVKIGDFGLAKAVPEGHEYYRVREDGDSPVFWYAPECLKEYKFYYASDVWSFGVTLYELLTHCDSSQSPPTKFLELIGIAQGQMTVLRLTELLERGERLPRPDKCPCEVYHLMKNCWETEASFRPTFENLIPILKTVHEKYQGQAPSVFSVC
Procedure: After 120 min at room temperature, reactions were stopped and the remaining ATP is depleted by adding 5 μL/well of ADP Glo Reagent (Promega, catalog number V912B). After 40 min at room temperature, 10 μl Kinase Detection Reagent (Kinase Detection Substrate (Promega, catalog number V914B) dissolved in Kinase Detection Buffer (Promega, catalog number V913B)) is added to convert ADP to ATP and to measure this newly synthesized ATP in a luciferase/luciferin reaction. Readout is performed after 30 min incubation at room temperature using the Envision. Kinase activity is calculated by subtracting the relative light units (RLU) obtained in the presence of a positive control inhibitor (10 μM staurosporine) from the RLU obtained in the presence of vehicle. The ability of a test compound to inhibit this activity (or percentage inhibition) is determined as:
RLU test compound=RLU determined for sample with test compound present
RLU control=RLU determined for sample with positive control inhibitor
RLU vehicle=RLU determined in the presence of vehicle
Dose dilution series were prepared for the compounds enabling the testing of dose-response effects in the TYK2 assay and the calculation of the IC50 for the compound. Each compound is routinely tested at concentration of 20 μM followed by a 1/5 serial dilution, 10 points in a final concentration of 1% DMSO. […] The data are expressed as the average IC50 from the assays.

[2] = test system: IFNα activation of STAT1 in PBMC; test: IFNα activation of STAT1 in PBMC; type: cell-based; conditions: Homo sapiens; IFNα activation of STAT1 in PBMC; average IC50; read-out: IFNα signaling inhibitory potency IC50
How it was run: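 Human PBMC, with red cells lysed by NH4Cl, were pre-treated with compound for 30 min at 37 °C and 5% CO2. They were then stimulated for 30 min with recombinant human IFNα at 5 ng/mL final.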

[3] = test system: IL-12 activation of STAT4 in NK-92 cells; test: IL-12 activation of STAT4 in NK-92 cells using AphaLISA SureFire technology; type: cell-based; conditions: Homo sapiens, NK92; IL-12 activation of STAT4 in NK-92 cells, AlphaLISA SureFire; average IC50; read-out: IL12 pSTAT4 IC50
How it was run: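 NK-92 cells, starved of rhIL-2 overnight, were stimulated with rhIL-12 for 30 min at 37 °C with test compounds, then lysed. Phospho-STAT4 (Tyr693) was read by AlphaLISA SureFire. Percent inhibition versus the vehicle-plus-trigger signal was fitted by sigmoidal nonlinear regression to give IC50, averaged over experiments.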

[4] = test system: IFNα stimulation, Phospho-STAT1 on CD4+ cells in human whole blood; test: Human whole blood assay (hWBA), IFNα stimulation; type: cell-based; conditions: Universal type I IFN 1000 U/mL, pSTAT1 on CD4+ cells, read-out: IFN α IC50
Procedure: (§1) A flow cytometry analysis is performed to establish JAK1 and TYK2 compound potency ex vivo using human whole blood. Therefore, blood is taken from human volunteers who gave informed consent, then equilibrated for 30 min at 37° C. under gentle rocking and aliquoted in Eppendorf tubes. Compound is added at different concentrations and incubated at 37° C. for 30 min under gentle rocking and subsequently stimulated for 20 min at 37° C. under gentle rocking with interleukin 6 (IL-6) for JAK-dependent pathway stimulation or IFNα for TYK2-dependent pathway stimulation. Phospho-STAT1 is then evaluated using FACS analysis.
(§2) The remaining diluted Lyse/Fix buffer is discarded.
(§3) A 3-fold dilution series of the compound is prepared in DMSO (10 mM stock solution). Control-treated samples received DMSO instead of compound. All samples are incubated with a 1% final DMSO concentration.
Human blood is collected in heparinized tubes. The blood is divided in aliquots of 148.5 μL. Then, 1.5 μL of the test compound dilution is added to each blood aliquot and the blood samples are incubated for 30 min at 37° C. under gentle rocking. One and a half microliter of 10-fold diluted IL-6 stock solution or Universal type 1 IFN is added to the blood samples (final concentration 10 ng/mL and 1000 U/mL, respectively) and samples are incubated at 37° C. for 20 min under gentle rocking.
At the end of the stimulation period, 3 mL of 1× pre-warmed Lyse/Fix buffer is immediately added to the blood samples, vortexed briefly and incubated for 15 min at 37° C. in a water bath in order to lyse red blood cells and fix leukocytes.
Tubes are centrifuged for 5 min at 400×g at 4° C. The cell pellet is washed with 3 mL of cold 1×PBS, and after centrifugation the cell pellet is resuspended in 100 μL of ice-cold 1×PBS and 900 μL ice-cold 100% MeOH is added. Cells are then incubated at 4° C. for 30 min for permeabilization.
Permeabilized cells are then washed with 1×PBS containing 3% BSA and finally resuspended in 80 μL of 1×PBX containing 3% BSA.
(§4) Cells are then washed once with 1×PBS and analyzed on a FACSCanto II flow cytometer (BD Biosciences).
(§5) 50,000 total events are counted and Phospho-STAT1 positive cells are measured after gating on CD4+ cells, in the lymphocyte gate.

[5] = molecular target: T1, Recombinant human TYK2 catalytic domain (amino acids 871-1187); test: TYK2 radioactive assay polyGT substrate; type: biochemical; also: 0.1 µM ATP
How it was run: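 Reaction at 30° C. for 120 min, ended with 150 mM phosphoric acid, washed, counted; percent inhibition scaled between vehicle and 10 μM staurosporine cpm.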

[6] = test system: IL-6 stimulation, Phospho-STAT1 on CD4+ cells in human whole blood; test: Human whole blood assay (hWBA), IL-6 stimulation; type: cell-based; conditions: IL-6 10 ng/mL, pSTAT1 on CD4+ cells, read-out: IL6 IC50
Procedure: as §1, §2, §3
Human blood is collected in heparinized tubes. The blood is divided in aliquots of 148.5 μL. Then, 1.5 μL of the test compound dilution is added to each blood aliquot and the blood samples are incubated for 30 min at 37° C. under gentle rocking. […]
as §4, §5

| Compound | IC50 [1] [nM] | IC50 [2] [nM] | IC50 [3] [nM] | IC50 [4] [nM] | IC50 [5] [nM] | IC50 [6] [nM] |
| --- | --- | --- | --- | --- | --- | --- |
| Cc1cc(C#N)ncc1Oc1cc(Nc2ccc(N3C[C@@H](C)O[C@H](C)C3)nn2)c2ncn(C)c2n1 [Compound 168, 5-[7-[[6-[(2R,6R)-2,6-dimethylmorpholin-4-yl]pyridazin-3-yl]amino]-3-methylimidazo[4,5-b]pyridin-5-yl]oxy-4-methylpyridine-2-carbonitrile] | 2.39 | 82 | 87 | 1070 | – | – |
| Cc1cc(C#N)ncc1Oc1cc(Nc2ccc(C(=O)N3CC(N(C)C)C3)cn2)c2ncn(C)c2n1 [Compound 106, 5-[7-[[5-[3-(dimethylamino)azetidine-1-carbonyl]-2-pyridyl]amino]-3-methyl-imidazo[4,5-b]pyridin-5-yl]oxy-4-methyl-pyridine-2-carbonitrile] | – | 102 | 150 | 533 | 1.43 | – |
| Cc1cc(C#N)ncc1Oc1cc(Nc2ccc(N3C[C@H](C)O[C@@H](C)C3)nn2)c2ncn(C)c2n1 [Compound 166, 5-[7-[[6-[(2S,6S)-2,6-dimethylmorpholin-4-yl]pyridazin-3-yl]amino]-3-methylimidazo[4,5-b]pyridin-5-yl]oxy-4-methylpyridine-2-carbonitrile] | 2.28 | 84 | 97 | 1450 | – | – |
| Cc1cc(C#N)ncc1Oc1cc(Nc2ccc(C(=O)N3CCN(C)CC3)nn2)c2ncn(C)c2n1 [Compound 150, 4-methyl-5-[3-methyl-7-[[6-(4-methylpiperazine-1-carbonyl)pyridazin-3-yl]amino]imidazo[4,5-b]pyridin-5-yl]oxypyridine-2-carbonitrile] | 1.1 | 278 | 1020 | 269 | – | 6810 |
| Cc1cc(C#N)ncc1Oc1cc(Nc2ccc(C(=O)N3CCN(C4CC4)CC3)cn2)c2ncn(C)c2n1 [Compound 48, 5-[7-[[5-(4-cyclopropylpiperazine-1-carbonyl)pyridin-2-yl]amino]-3-methylimidazo[4,5-b]pyridin-5-yl]oxy-4-methylpyridine-2-carbonitrile] | 0.48 | 63 | 56 | – | 0.84 | – |
| Cc1cc(C#N)ncc1Oc1cc(Nc2ccc(N3C[C@@H](C)O[C@H](C)C3)nn2)c2ncn(C)c2n1 (racemic) [Compound 176, 4-methyl-5-[3-methyl-7-[[6-[rac-(2R,6R)-2,6-dimethylmorpholin-4-yl]pyridazin-3-yl]amino]imidazo[4,5-b]pyridin-5-yl]oxypyridine-2-carbonitrile] | 0.93 | 66.5 | 40.5 | 757 | – | – |
| Cc1cc(C#N)ncc1Oc1cc(Nc2ccc(N3CCOC(C(C)C)C3)nn2)c2ncn(C)c2n1 (stereo in doubt) [Compound 177, 4-methyl-5-[3-methyl-7-[[6-[(2S)-2-propan-2-ylmorpholin-4-yl]pyridazin-3-yl]amino]imidazo[4,5-b]pyridin-5-yl]oxypyridine-2-carbonitrile] | 1.2 | 71 | 24 | – | – | – |
| Cc1cc(C#N)ncc1Oc1cc(Nc2ccc(N3C[C@@H]4C[C@H]3CO4)nn2)c2ncn(C)c2n1 [Compound 174, 4-methyl-5-[3-methyl-7-[[6-[(1S,4S)-2-oxa-5-azabicyclo[2.2.1]heptan-5-yl]pyridazin-3-yl]amino]imidazo[4,5-b]pyridin-5-yl]oxypyridine-2-carbonitrile] | 1.03 | 72 | 61 | – | – | – |
| Cc1cc(C#N)ncc1Oc1cc(Nc2ccc(N3CCOC(C#N)C3)nn2)c2ncn(C)c2n1 (stereo not drawn) [Compound 171, 4-[6-[[5-(6-cyano-4-methylpyridin-3-yl)oxy-3-methylimidazo[4,5-b]pyridin-7-yl]amino]pyridazin-3-yl]morpholine-2-carbonitrile] | 0.88 | 45 | 127 | – | – | – |
| Cc1cc(C#N)ncc1Oc1cc(Nc2ccc(N3CC4CCC(C3)O4)nn2)c2ncn(C)c2n1 [Compound 170, 4-methyl-5-[3-methyl-7-[[6-(8-oxa-3-azabicyclo[3.2.1]octan-3-yl)pyridazin-3-yl]amino]imidazo[4,5-b]pyridin-5-yl]oxypyridine-2-carbonitrile] | 1.46 | 83 | 73 | – | – | – |
| Cc1cc(C#N)ncc1Oc1cc(Nc2ccc(N3CCOC(C)(C)C3)nn2)c2ncn(C)c2n1 [Compound 175, 5-[7-[[6-(2,2-dimethylmorpholin-4-yl)pyridazin-3-yl]amino]-3-methylimidazo[4,5-b]pyridin-5-yl]oxy-4-methylpyridine-2-carbonitrile] | 2.64 | 94 | 137 | – | – | – |
| Cc1cc(C#N)ncc1Oc1cc(Nc2ccc(N3CCO[C@H](C)C3)nn2)c2ncn(C)c2n1 [Compound 172, 4-methyl-5-[3-methyl-7-[[6-[(2R)-2-methylmorpholin-4-yl]pyridazin-3-yl]amino]imidazo[4,5-b]pyridin-5-yl]oxypyridine-2-carbonitrile] | 0.92 | 66 | 58 | – | – | – |
| Cc1cc(C#N)ncc1Oc1cc(Nc2ccc(C(=O)N3CC[C@H](O)C3)cn2)c2ncn(C)c2n1 [Compound 112, 5-[7-[[5-[(3S)-3-hydroxypyrrolidine-1-carbonyl]-2-pyridyl]amino]-3-methyl-imidazo[4,5-b]pyridin-5-yl]oxy-4-methyl-pyridine-2-carbonitrile] | – | 130 | 1100 | 447 | 4.29 | – |
| Cc1cc(C#N)ncc1Oc1cc(Nc2ccc(C(=O)N3CC(C(C)(C)O)C3)cn2)c2ncn(C)c2n1 [Compound 102, 5-[7-[[5-[3-(1-hydroxy-1-methyl-ethyl)azetidine-1-carbonyl]-2-pyridyl]amino]-3-methyl-imidazo[4,5-b]pyridin-5-yl]oxy-4-methyl-pyridine-2-carbonitrile] | – | 75 | 302 | 175 | 1.98 | – |

From patent US11564923B2, “Compounds and pharmaceutical compositions thereof for the treatment of inflammatory disorders” (Galapagos NV, priority 2017, dated 2023)
